Results as given in US20130029970A1 (priority 2009, published 2013).

Assays:
human CB1 receptors = target: T1, human CB1 receptors (Homo sapiens, UniProt P21554); assay: cAMP assay in HEK-293 cells, hCB1 agonist; assay type: cell-based; details: inhibition of forskolin-stimulated cAMP, HEK-293 cells; for EC50: read-out: hCB1 EC50 (cAMP ag)
T1 construct: (cDNA clone) CNR01L000
Summary of the method: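 Stable hCB1 HEK-293 cells suspended in HBSS with 10 mM HEPES and 0.1% fatty acid-free BSA, incubated 30 min at 37° C. with compound plus forskolin (90 uM in the 3× compound solution). Lysed cAMP measured by enzyme-fragment kit; EC50 = 50% inhibition of forskolin-stimulated cAMP (forskolin maximum = 100%), sigmoidal fit.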

[1] = target: T2, recombinant human cannabinoid receptor CB1 (Homo sapiens, UniProt P21554); assay: Cannabinoid receptor radioligand binding assay, [3H]-CP 55,940 displacement, hCB1
T2 construct: (cDNA clone) CNR01L000
T2 sequence (P21554 whole entry): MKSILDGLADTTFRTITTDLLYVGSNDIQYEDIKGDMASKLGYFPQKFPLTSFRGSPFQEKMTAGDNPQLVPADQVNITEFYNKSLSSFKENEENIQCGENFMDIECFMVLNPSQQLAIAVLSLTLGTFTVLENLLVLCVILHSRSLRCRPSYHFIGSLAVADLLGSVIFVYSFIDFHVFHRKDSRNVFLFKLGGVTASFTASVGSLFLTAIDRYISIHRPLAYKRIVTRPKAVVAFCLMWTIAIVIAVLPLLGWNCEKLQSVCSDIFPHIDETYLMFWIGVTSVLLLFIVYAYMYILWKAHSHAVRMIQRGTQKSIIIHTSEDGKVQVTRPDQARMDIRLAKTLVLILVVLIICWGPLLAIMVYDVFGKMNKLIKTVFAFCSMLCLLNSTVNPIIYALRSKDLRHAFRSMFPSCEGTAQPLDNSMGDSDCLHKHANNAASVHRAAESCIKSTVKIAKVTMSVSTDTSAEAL
Summary of the method: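 Membranes from HEK-293 cells stably expressing human CB1, 2-10 μg protein, incubated 90 min at room temperature with 0.5 nM [3H]-CP 55,940 in Tris-HCl pH 7.5, MgCl2, EDTA and 0.1% fatty-acid-free BSA. Bound radioactivity counted after rapid filtration; nonspecific binding defined with 1 μM unlabeled CP 55,940.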

T1 sequence (P21554 whole entry): as above

Row | SMILES | hCB1 EC50 (cAMP ag, nM) (human CB1 receptors) | IC50 [1] [nM] | EC50 (human CB1 receptors) [nM]
1 | COc1ccc(C(=O)c2cc3cc(C)n(CCN4CCCOCC4)c3s2)cn1 [Compound 158, (6-(2-(1,4-oxazepan-4-yl)ethyl)-5-methyl-6H-thieno[2,3-b]pyrrol-2-yl)(6-methoxypyridin-3-yl)methanone] | NS (NS means “Not Significant,” which means less than 30% agonist activity when compared to the positive control.) | 100 to 1000 | 
2 | CCS(=O)(=O)n1c(C)cc2cc(C(=O)c3cccc(Cl)c3Cl)sc21 [Compound 25, (2,3-Dichlorophenyl)(6-(ethylsulfonyl)-5-methyl-6H-thieno[2,3-b]pyrrol-2-yl)methanone] | NS (NS means “Not Significant,” which means less than 30% agonist activity when compared to the positive control.) | 1000 to 10000 | 
3 | COc1ncccc1C(=O)c1cc2cc(C)n(CCN3CCOCC3)c2s1 [Compound 47, (2-Methoxypyridin-3-yl)(5-methyl-6-(2-morpholinoethyl)-6H-thieno[2,3-b]pyrrol-2-yl)methanone] | NS (NS means “Not Significant,” which means less than 30% agonist activity when compared to the positive control.) | > 10000 | 
4 | CCOc1ccc(C(=O)c2cc3cc(C)n(CCN4CCOCC4)c3s2)c(Cl)c1 [Compound 126, (2-chloro-4-ethoxyphenyl)(5-methyl-6-(2-morpholinoethyl)-6H-thieno[2,3-b]pyrrol-2-yl)methanone] |  | 100 to 1000 | 1000 to 10000
5 | Cc1cc2cc(C(=O)c3cccc(Cl)c3Cl)sc2n1S(=O)(=O)N1CCOCC1 [Compound 45, (2,3-Dichlorophenyl)(5-methyl-6-(morpholinosulfonyl)-6H-thieno[2,3-b]pyrrol-2-yl)methanone] | NS (NS means “Not Significant,” which means less than 30% agonist activity when compared to the positive control.) | < 100 | 
6 | COc1ccc(C(=O)c2cc3cc(C)n(CCNC4CCOC4)c3s2)cn1 (stereo not drawn) [Compound 164, (6-methoxypyridin-3-yl)(5-methyl-6-(2-((tetrahydrofuran-3-yl)amino)ethyl)-6H-thieno[2,3-b]pyrrol-2-yl)methanone] | NS (NS means “Not Significant,” which means less than 30% agonist activity when compared to the positive control.) | 1000 to 10000 | 
7 | Cc1cc2cc(Cc3cccc(Cl)c3Cl)sc2n1CCN1CCOCC1 [Compound 32, 4-(2-(2-(2,3-Dichlorobenzyl)-5-methyl-6H-thieno[2,3-b]pyrrol-6-yl)ethyl)morpholine] |  | 1000 to 10000 | 1000 to 10000
8 | COc1ccc(C(=O)c2cc3cc(C)n(CCN4CCC(OC)C4)c3s2)cn1 (stereo not drawn) [Compound 147, (6-methoxypyridin-3-yl)(6-(2-(3-methoxypyrrolidin-1-yl)ethyl)-5-methyl-6H-thieno[2,3-b]pyrrol-2-yl)methanone] | NS (NS means “Not Significant,” which means less than 30% agonist activity when compared to the positive control.) | > 10000 | 
9 | Cc1cc2cc(C(=O)c3ccccc3)sc2n1CCN1CCOCC1 [Compound 7, (5-Methyl-6-(2-morpholinoethyl)-6H-thieno[2,3-b]pyrrol-2-yl)(phenyl)methanone] |  | 1000 to 10000 | 1000 to 10000
10 | COc1ccc(C(c2cc3cc(C)n(CCN4CCOCC4)c3s2)C(F)(F)F)cc1 (stereo not drawn) [Compound 141, 4-(2-(5-methyl-2-(2,2,2-trifluoro-1-(4-methoxyphenyl)ethyl)-6H-thieno[2,3-b]pyrrol-6-yl)ethyl)morpholine] | NS (NS means “Not Significant,” which means less than 30% agonist activity when compared to the positive control.) | 1000 to 10000 | 
11 | Cc1cc2cc(C(=O)c3cccc(Cl)c3Cl)sc2n1S(=O)(=O)CC1CCOCC1 [Compound 46, (2,3-Dichlorophenyl)(5-methyl-6-((tetrahydro-2H-pyran-4-yl)methylsulfonyl)-6H-thieno[2,3-b]pyrrol-2-yl)methanone] |  | < 100 | < 100
12 | COc1ccc(C(=O)c2cc3cc(C)n(S(=O)(=O)CC4CCOCC4)c3s2)cc1 [Compound 57, (4-Methoxyphenyl)(5-methyl-6-((tetrahydro-2H-pyran-4-yl)methylsulfonyl)-6H-thieno[2,3-b]pyrrol-2-yl)methanone] |  | < 100 | < 100
13 | Cc1cc2cc(C(=O)c3cccc(Cl)c3Cl)sc2n1CC1CCOCC1 [Compound 31, (2,3-Dichlorophenyl)(5-methyl-6-((tetrahydro-2H-pyran-4-yl)methyl)-6H-thieno[2,3-b]pyrrol-2-yl)methanone] | NS (NS means “Not Significant,” which means less than 30% agonist activity when compared to the positive control.) | 100 to 1000 | 
14 | COc1ccc(C(=O)c2cc3cc(C)n(CCN4CCCC4)c3s2)cn1 [Compound 167, (6-methoxypyridin-3-yl)(5-methyl-6-(2-(pyrrolidin-1-yl)ethyl)-6H-thieno[2,3-b]pyrrol-2-yl)methanone] | NS (NS means “Not Significant,” which means less than 30% agonist activity when compared to the positive control.) | < 100 | 
15 | CCS(=O)(=O)n1c(C)cc2cc(C(=O)c3ccccc3Cl)sc21 [Compound 42, (2-Chlorophenyl)(6-(ethylsulfonyl)-5-methyl-6H-thieno[2,3-b]pyrrol-2-yl)methanone] | NS (NS means “Not Significant,” which means less than 30% agonist activity when compared to the positive control.) | 1000 to 10000 | 
16 | Cc1cc2cc(C(=O)c3cccc(Cl)c3)sc2n1CCN1CCOCC1 [Compound 4, (3-Chlorophenyl)(5-methyl-6-(2-morpholinoethyl)-6H-thieno[2,3-b]pyrrol-2-yl)methanone] | NS (NS means “Not Significant,” which means less than 30% agonist activity when compared to the positive control.) | 1000 to 10000 | 
17 | COc1ccc(C(=O)c2cc3cc(C)n(CCCNS(C)(=O)=O)c3s2)cc1 [Compound 44, N-(3-(2-(4-methoxybenzoyl)-5-methyl-6H-thieno[2,3-b]pyrrol-6-yl)propyl)methanesulfonamide] | NS (NS means “Not Significant,” which means less than 30% agonist activity when compared to the positive control.) | 1000 to 10000 | 
18 | COc1ccc(C(=O)c2cc3cc(C)n(CCCNS(C)(=O)=O)c3s2)c(Cl)c1 [Compound 91, N-(3-(2-(2-Chloro-4-methoxybenzoyl)-5-methyl-6H-thieno[2,3-b]pyrrol-6-yl)propyl)methanesulfonamide] | NS (NS means “Not Significant,” which means less than 30% agonist activity when compared to the positive control.) | > 10000 | 
19 | COc1ccc(C(=O)c2cc3cc(C)n(CCC4CCOCC4)c3s2)cc1 [Compound 82, (4-Methoxyphenyl)(5-methyl-6-(2-(tetrahydro-2H-pyran-4-yl)ethyl)-6H-thieno[2,3-b]pyrrol-2-yl)methanone] |  | 100 to 1000 | 100 to 1000
20 | Cc1cc2cc(C(=O)c3ccc(C#N)cc3)sc2n1CCN1CCOCC1 [Compound 129, 4-(5-methyl-6-(2-morpholinoethyl)-6H-thieno[2,3-b]pyrrole-2-carbonyl)benzonitrile] | NS (NS means “Not Significant,” which means less than 30% agonist activity when compared to the positive control.) | 1000 to 10000 | 
21 | COc1cccc(C(=O)c2cc3cc(C)n(CCN4CCOCC4)c3s2)c1 [Compound 26, (3-Methoxyphenyl)(5-methyl-6-(2-morpholinoethyl)-6H-thieno[2,3-b]pyrrol-2-yl)methanone] |  | 100 to 1000 | 100 to 1000
22 | COc1ccc(C(=O)c2cc3cc(C)n(CCN4CCOCC4)c3s2)cc1F [Compound 128, (3-fluoro-4-methoxyphenyl)(5-methyl-6-(2-morpholinoethyl)-6H-thieno[2,3-b]pyrrol-2-yl)methanone] | NS (NS means “Not Significant,” which means less than 30% agonist activity when compared to the positive control.) | 1000 to 10000 | 
23 | COc1cc(F)ccc1C(=O)c1cc2cc(C)n(CCN3CCOCC3)c2s1 [Compound 133, (4-fluoro-2-methoxyphenyl)(5-methyl-6-(2-morpholinoethyl)-6H-thieno[2,3-b]pyrrol-2-yl)methanone] |  | 100 to 1000 | 100 to 1000
24 | Cc1cc2cc(C(=O)c3cccc(Cl)c3Cl)sc2n1S(=O)(=O)C(C)C [Compound 38, (2,3-Dichlorophenyl)(6-(isopropylsulfonyl)-5-methyl-6H-thieno[2,3-b]pyrrol-2-yl)methanone] | NS (NS means “Not Significant,” which means less than 30% agonist activity when compared to the positive control.) | 1000 to 10000 | 
25 | COc1ccc(C(=O)c2cc3cc(C)n(Cc4ccccc4)c3s2)cc1 [Compound 84, (6-Benzyl-5-methyl-6H-thieno[2,3-b]pyrrol-2-yl)(4-methoxyphenyl)methanone] | NS (NS means “Not Significant,” which means less than 30% agonist activity when compared to the positive control.) | 1000 to 10000 | 
26 | Cc1cc2cc(C(=O)c3ccc(F)cc3)sc2n1CCN1CCOCC1 [Compound 54, (4-Fluorophenyl)(5-methyl-6-(2-morpholinoethyl)-6H-thieno[2,3-b]pyrrol-2-yl)methanone] | NS (NS means “Not Significant,” which means less than 30% agonist activity when compared to the positive control.) | 1000 to 10000 | 
27 | COc1ccc(C(=O)c2cc3cc(C)n(S(=O)(=O)N(C)C)c3s2)cc1 [Compound 51, 2-(4-Methoxybenzoyl)-N,N,5-trimethyl-6H-thieno[2,3-b]pyrrole-6-sulfonamide] | NS (NS means “Not Significant,” which means less than 30% agonist activity when compared to the positive control.) | 1000 to 10000 | 
